Test system: MDAMB231 tumor xenografts
Test: long-term in vivo siRNA treatment of MDAMB231 xenografts
Design: species or system SCID-Beige mice
Conditions: p<0.05; for median survival: siRNA with chemotherapy (docetaxel) over chemotherapy alone
Experimental: FIG. 8A, FIG. 8B, and […] show long-term, in vivo treatment in siRNA MDAMB231 xenografts. Triple-negative breast cancer cell line, MDAMB231 was injected into the mammary fat pad of SCID beige mice (n=9). These tumors were randomized into six groups: vehicle+scrambled siRNA, vehicle+RPL39 siRNA, vehicle 4 MLF2 siRNA, docetaxel (20 mg/kg, i.p.)+scrambled siRNA, docetaxel (20 mg/kg, i.p.)+RPL39 siRNA, docetaxel (20 mg/kg, i.p.)+MLF2 siRNA. Tumor volume was measured twice weekly and reported as tumor volume fold-change over time.
Long-term in vivo treatment efficacy studies: three million cells MDAMB231 cancer cells, which grow primary as well as metastatic tumors, were injected in the mammary fat pad of SCID-Beige mice and allowed them to grow to 150-300 mm^3 tumors, and randomized them into 6 groups: (1) vehicle+scrambled siRNA. (2) vehicle+MLF2 siRNA. (3) vehicle+RPL39 siRNA, (4) docetaxel (20 mg/kg)+scrambled siRNA, (5) docetaxel (20 mg/kg)+MLF2 siRNA, and (6) docetaxel (20 mg/kg)+RPL39 siRNA. Each injection was loaded with 15 μg of siRNA per animal. These groups received three cycles of treatment every 14 days apart starting at Day 0, and cationic liposome packaged siRNA was administered through tail vein injection thrice weekly.
In the shRNA knockdown experiments, the mean and standard deviation of all measurements from every replicated experiment of each plate were estimated. The Z-score was calculated by subtracting […] and dividing the difference by standard deviation. […] Different treatment groups were compared by one-way ANOVA to determine statistical significance in the confirmatory shRNA, nanoliposome siRNA, and tumor volume fold-change experiments. This was followed by Tukey analysis for a pairwise comparison of the different treatment groups. In the tumor recurrence studies, events were defined as first appearance of tumor >50 mm^3 after completion of treatment. Time to recurrence was derived by the Kaplan-Meier method, with differences compared using the generalized Mann-Whitney-Wilcoxon rank-sum test.

[1] = siRNA alone (15 μg per injection) vs vehicle treated groups
[2] = siRNA in combination with docetaxel (20 mg/kg)

Substance | tumor volume [1] | tumor volume [2] | median survival
MLF2 siRNA: siRNA against myeloid leukemia factor 2; sense SEQ ID NO: 3 CCCTGATGGATCCCTTTGCTAT, antisense SEQ ID NO: 19 ATAGCAAAGGGATCCATCAGGA (packaged in nanoliposomes, chemistry not given here, further chemistry not given here) | Significant reduction | significantly reduced | significantly prolonged
RPL39 siRNA: siRNA against ribosomal protein L39-like; sense SEQ ID NO: 15 ACGATTCCTGGCCAAGAAACAA, antisense SEQ ID NO: 31 TTGTTTCTTGGCCAGGAATCGC (listed as DNA, chemistry not fully specified) | Significant reduction | significantly reduced | significantly prolonged
